Data from US20060154236A1, “Computer-assisted analysis” (priority 2004, published 2006).
Read-outs that look alike come from different tables or passages of the source. Residues, ends and D or L forms follow the SMILES beside them. *: point of attachment. Cbz = O=C(OCc1ccccc1)*

How the values were obtained:
[1] = test system: HeLa (human cancer) cells; assay: Cytological dose-response profiling by automated fluorescence microscopy (KS statistic z-scores, 93 descriptors); format: cell-based; conditions: for response of compound profile (heat plot): 13-point titration
Experimental: The known drug set was chosen to cover common mechanisms of toxicity or therapeutic action in cancer and other diseases, and to include several groups with a common target (macromolecule or pathway) but unrelated structures. We analyzed thirteen 3-fold dilutions of each drug, covering a final concentration range on cells from micromolar to picomolar. (Table 3 and Materials & Methods). HeLa (human cancer) cells were cultured in 384-well plates to near confluence, treated with drugs for 20 hrs, fixed, and stained with fluorescent probes for various cell components and processes. We chose 11 distinct probes that covered a range of cell biology, multiplexing a DNA stain and two antibodies per well (the probe sets are: (SC35, anillin), (α-tubulin, actin), (phospho-p38, phospho-ERK), (p53, cFos), (phospho-CREB, calmodulin)). Using automated fluorescence microscopy, we collected images of up to ˜8000 cells from each well. 26 wells on each plate were treated only with DMSO to generate a control population. The experiment was performed twice in parallel to provide a replicate dataset. Image segmentation procedures were used to automatically identify nuclei and nuclear organelles, and cytoplasmic regions were approximated as an annulus surrounding each identified nucleus (FIG. 31A). For each cell, region, and probe, a set of descriptors was measured. These included measures of size, shape, and intensity, as well as ratios of intensities between regions (93 descriptors total, Table S3).
For profiling studies, it is useful to reduce each population of descriptor values to a single number. […] We devised a measure based on the Kolmogorov-Smirnov (KS) statistic, allowing nonparametric comparison of experimental and control distributions from the same plate (FIGS. 31B and 35). […] In particular, the relationship between z-score and the original physical measure may be non-linear.
Cell culture. 20 hours before compound addition, Hela cells grown in […] dishes were trypsinized, resuspended in DMEM supplemented with 10% FCS and 10 ug/mL penicillin/streptomycin, and plated in 384-well plates at an initial density of 3,000 cells per well, 40 uL per well. Compounds were purchased from Sigma (St. Louis, MO), Calbiochem (EMD Biosciences, San Diego, Calif.) and Tocris (Elliksville, MO) and are listed in Table 2. Compound stocks were prepared in DMSO and then arrayed on 384-well plates in 16 consecutive 1:3 serial dilutions in DMSO as outlined in Table 3. The highest and two lowest dilutions (rows A, 0 and P) were not used for subsequent analysis as the wells due to persistent edge effects, leaving us with a series of 13 dilutions. Each stock was diluted 16-fold in warmed culture medium, and 8 μl of this solution was added to the plated cells, resulting in a 96-fold final dilution. All conditions were performed in duplicate in separate plates. Cells were incubated at 37° C. for 20 hours, then fixed in 3% formaldehyde in PBS. All liquid handling was performed using a programmed TekBench (TekCel, Hopkinton, Mass.).
Markers. Five sets of markers were stained by standard immunofluorescence methods in this study.

p53 and cFos = assay: Single-cell analysis of nuclear p53 vs cFos intensity; format: cell-based, human; conditions: HeLa, 20 hrs, FIG. 34
Description: FIG. 34 is a single-cell analysis showing differing patterns of dose-dependent p53 and cFos responses to different drugs. A. Scatter plot of average nuclear p53 intensity vs. average cFos intensity in a typical control well and representative image. The bright cells at the top of the image are in mitosis. B. Dose-dependent increases in response to MG132 shown in heat maps are correlated in scatter plots and images (orange nuclei). C. Dose-dependent increases in response to camptothecin shown in heat maps are anti-correlated in scatter plots and images. The black (cFos) and green (p53) heat map values for the highest dose reflect the contribution of apoptotic cells with negligible p53 and cFos nuclear staining.
Extensions of cytological profiling to reflect dependencies among descriptors will allow more sophisticated analysis of drug responses at a systems level. For example, both p53 and cFos, a transcription factor involved in MAP-kinase signalling, are involved in cell stress responses, but the interrelationship of the p53 and MAP-kinase pathways is poorly understood (B. Kaina, Biochem Pharmacol 66:1547 (Oct. 15, 2003); incorporated herein by reference). […]

[2] = test system: HeLa (human cancer) cells; assay: Hierarchical clustering of compound profiles by titration-invariant similarity score (TISS); format: cell-based
Description: When comparing drug mechanism, changes in specificity, and thus phenotype, are relevant but changes in affinity, and thus PEC, are not. […] We developed a titration-invariant similarity score (TISS) to allow comparison between dose-response profiles independent of starting dose.
Titration-invariant similarity score (TISS) for comparing descriptor and compound vectors. We developed a “titration-invariant” similarity score (TISS) to assess the similarity of compounds independent of the starting point of their titration series. The TISS between two compounds is calculated in three steps: (1) we define the notion of a titration sub-series for each compound to account for different possible starting concentrations (FIGS. 35 and 36B); (2) we define a correlation for pairs of these sub-series (FIG. 36B); (3) we define a similarity measure derived from the strongest correlation over a determined range of these sub-series (FIG. 36B).
(1) For each compound c, the complete set of z-scores across all descriptors and titrations defines a DxT-dimensional vector: Xc=(zc,l,l, . . . , zc,D,l, . . . , zc,l,T, . . . , zc,D,T), where D is the number of descriptors (=93) and T is the number of titrations (=13). In order to allow comparisons of compounds with different titration starting points, we define titration sub-series as follows: Xc(s)=(zc,l,l, . . . , zc,D,l, . . . , zc,l,T−s, . . . , zc,D,T−s) and Xc(−s)=(zc,l,s, . . . , zc,D,s, . . . , zc,l,T, . . . , zc,D,T). Intuitively, by truncating starting or ending titrations, these definitions allow us to “shift” the starting point for the titration series.
(2) For all compound vectors Xi and Xj, we define their s-correlation: xij(s)=<Xi, Xj>(s)=<Xi(s), Xj(−s)>/(∥Xi(s)∥ ∥Xj(−s)∥)
(we use the standard notation <A, B>=ΣiAiBi and ∥A∥^2=<A,A>). Thus, <Xi, Xj>(0) measures the standard correlation of vectors Xi and Xj, while <Xi, Xj>(1) drops the first titration for compound Xj and the last for Xi before measuring their correlation. For each s, we built a 200×200 such correlation matrix X(s)=(xij(s)) using all of the compounds from each of the two replicates.
(3) Given a range −S≦s≦S, we wish to look for the value of s that gives the highest correlation between two vectors.
Clustering compound and descriptor vectors. We performed standard hierarchical clustering of replicate-averaged compound (FIG. 33) or descriptor (FIG. 39) vectors using the pdist and linkage functions in Matlab. pdist was defined by the TISS for each pair of vectors. […] Compound 50 was not present in all datasets and so was also excluded.

transcription = assay: Preliminary in vitro transcription experiments; format: biochemical
[3] = HeLa cells, 20 hrs, thirteen 3-fold dilutions, Y = profile response above signal threshold
[4] = unsupervised hierarchical clustering of the 61 responsive compounds

Compound | Used in clustering (FIG. 33) [1, 3] | clustering of compound profile by TISS (FIG. 33) [2, 4] | response of compound profile (heat plot) ([1]; HeLa, 20 hrs) | also measured
CC[C@@]1(O)C(=O)OCc2c1cc1n(c2=O)Cc2cc3ccccc3nc2-1 [Compound 10, Camptothecin] | Y |  |  | anillin nuclear level ([1]; HeLa, 20 hrs, G2 arrested state): marked nuclear accumulation; total DNA content / cell cycle response ([1]; HeLa, 20 hrs, as drug concentration increases): arrest with S/G2 DNA content; apoptosis ([1]; HeLa, 20 hrs, at the highest concentrations): widely induced; p53 induction ([1]; HeLa, 20 hrs, concentrations sufficient to promote G2 arrest): much less so; p53 induction ([1]; HeLa, 20 hrs, high concentrations): strongly induced; p53 response (z-score heat plot) ([1]; HeLa, 20 hrs, low doses, FIG. 31C): statistically significant responses; relation of dose-dependent p53 and cFos responses in single cells (p53 and cFos): anti-correlated
CC(C)C[C@@H](C=O)NC(=O)[C@H](CC(C)C)NC(=O)[C@H](CC(C)C)NC(=O)OCc1ccccc1 [Compound 38, MG132] (Cbz-Leu-Leu-Leu-aldehyde) | Y |  |  | relation of dose-dependent p53 and cFos responses in single cells (p53 and cFos): increased correlated induction
Cn1cnc2c(NCc3ccccc3)nc(NCCO)nc21 [Compound 42, Olomucine] | Y | did cluster |  | 
CC(C)[C@H](CO)Nc1nc(Nc2cccc(Cl)c2)c2ncn(C(C)C)c2n1 [Compound 46, Purvalanol A] | Y | did cluster |  | 
CC[C@H](CO)Nc1nc(NCc2ccccc2)c2ncn(C(C)C)c2n1 [Compound 49, Roscovitine] |  |  |  | Used in clustering (FIG. 33) [1]: Y; clustering of compound profile by TISS (FIG. 33) [2]: did cluster
NC(=O)NO [Compound 94, Hydroxyurea] | Y | clustered closely with their unblinded counterparts and compounds of similar reported mechanism | significant responses | 
CC[C@H]1CN2CCc3cc(OC)c(OC)cc3[C@@H]2C[C@@H]1C[C@H]1NCCc2cc(OC)c(OC)cc21 [Compound 96, Emetine] | Y | clustered closely with their unblinded counterparts and compounds of similar reported mechanism | significant responses | 
O=C(CCCCCN1C(=O)c2cccc3cccc(c23)C1=O)NO [Compound 97, Scriptaid] | Y | clustered closely with their unblinded counterparts and compounds of similar reported mechanism | significant responses | 
CC[C@H](C)[C@H]1NC(=O)[C@@H](NC(=O)[C@@H](CC(C)C)N(C)C(=O)[C@@H]2CCCN2C(=O)C(C)O)[C@@H](C)OC(=O)[C@H](Cc2ccc(OC)cc2)N(C)C(=O)[C@@H]2CCCN2C(=O)[C@H](CC(C)C)NC(=O)[C@@H](C)C(=O)[C@H](C(C)C)OC(=O)C[C@@H]1O (stereo partly shown) [Compound 98, Didemnin B] | Y | clustered with ribosome inhibitors |  | 
CCCCCc1ccc(-c2ccc(/C=C/C(N)=O)cc2)nc1 [Compound 100, Concentramide] | Y | difficult to interpret | strong responses | 
Austocystin [Compound 99] | Y | clusters with transcription and translation inhibitors | strong responses | inhibition of transcription in vitro (transcription): inhibits transcription in vitro
